Source: patent publication US4046904A, “Novel penicillin, and its preparation and use” (Sumitomo Chemical Company, Limited, priority 1975, dated 1977)

Assays:
Proteus vulgaris = test: Median MIC, clinical isolates, agar-plate dilution (Table 1); format: cell-based
Description: (§1) Note: Compound (I) and Compound (A) were subjected to the test in the form of the sodium salt. The minimum inhibitory concentration (MIC) was determined using the agar-plate dilution method recommended by Japan Society of Chemotherapy.

Pseudomonas aeruginosa [1] = test: as above; format: cell-based; conditions: 49 clinical isolates, sodium salt, read-out: Median minimum inhibitory concentration
Description: as §1

Escherichia coli = test: MIC, nutrient broth dilution (Table 2); format: cell-based
Description: (§2) Note: Compound (I), Compound (A) and Compound (B) were subjected to the test in the form of the sodium salt. For each test, eight male ICR-SLC strain mice were used at each dose level. MIC was determined by the nutrient broth dilution method. In determination of PD50, subcutaneous treatment was carried out twice, i.e. 1 and 4 hours after infection.

Klebsiella pneumoniae = test: MIC, nutrient broth dilution (Table 2); format: cell-based
Description: as §2

Pseudomonas aeruginosa [2] = test: MIC, nutrient broth dilution (Table 2); format: cell-based
Description: as §2

Staphylococcus aureus = test: Median MIC, clinical isolates, agar-plate dilution (Table 4); format: cell-based
Description: (§3) Note: Compound (I) and Compound (C) were subjected to the test in the form of the sodium salt. MIC was determined using the agar-plate dilution method.

Streptococcus faecalis = test: as above; format: cell-based
Description: as §3

[3] = Acute toxicity in mice, intraperitoneal (Table 9); conditions: mouse, in vivo, ip
Description: The acute toxicity of Compound (I) and Compound (C) in ICR strain mice when administered by intraperitoneal route are shown in Table 9.
Note: Compound (I) and Compound (C) were subjected to the test in the form of the sodium salt.

CC1(C)S[C@@H]2[C@H](NC(=O)[C@H](NC(=O)c3ccnnc3O)c3ccc(O)cc3)C(=O)N2[C@H]1C(=O)O [Compound (I), 6-[D-2-(3-hydroxypyridazine-4-carbonamido)-2-(p-hydroxyphenyl)acetamido]penicillanic acid]
MIC50 (Proteus vulgaris; 7 clinical isolates, sodium salt, read-out: Median minimum inhibitory concentration): 8.8 µg/mL | antibacterial activity relative to Compound (A) (Proteus vulgaris; clinical isolates): superior | MIC50 (Pseudomonas aeruginosa [1]): 10 µg/mL | MIC (Escherichia coli; Escherichia coli strain NIHJ, sodium salt): 6.25 µg/mL | MIC (Escherichia coli; Escherichia coli strain No. 37, sodium salt): 12.5 µg/mL | MIC (Klebsiella pneumoniae; Klebsiella pneumoniae strain No. 1, sodium salt): 6.25 µg/mL | MIC (Klebsiella pneumoniae; Klebsiella pneumoniae strain No. 6, sodium salt): 25 µg/mL | MIC (Klebsiella pneumoniae; Klebsiella pneumoniae strain No. 20, sodium salt): 12.5 µg/mL | MIC (Pseudomonas aeruginosa [2]; Pseudomonas aeruginosa strain NC-5, sodium salt): 12.5 µg/mL | MIC (Pseudomonas aeruginosa [2]; Pseudomonas aeruginosa strain T, sodium salt): 25 µg/mL | MIC50 (Staphylococcus aureus; 37 strains, agar-plate dilution, sodium salt, read-out: Median minimum inhibitory concentration): 15 µg/mL | antibacterial activity relative to Compound (C) (Staphylococcus aureus; clinical isolates): superior | MIC50 (Streptococcus faecalis; Enterococcus faecalis, 23 strains, agar-plate dilution, sodium salt, read-out: Median minimum inhibitory concentration): 2 µg/mL | antibacterial activity relative to Compound (C) (Streptococcus faecalis; clinical isolates): superior | LD50 [3]: 7100 mg/kg
